Measured values taken from patent publication US20050032810A1, “Novel anthelmintic and insecticidal compositions” (priority 2003, published 2005).

System: H. contortus larvae
Test: H. contortus Larval Development Assay
Format: cell-based
Conditions: at 10 μM
Text: Compounds can be evaluated for anthelmintic activity according to the H. contortus Larval Development Assay described in Journal of Helminthology, 1984, 58, 107.

In the case of `Nc1cc(N2CCC(c3ccccc3)CC2)nc(N)n1` [Compound 2, 6-(4-phenylpiperidin-1-yl)pyrimidine-2,4-diamine], the “motility of the larvae” value is reported as “inhibited motility of the larvae”.
